Here are results for 3 compounds from patent US20050261282A1, “Treatment of basal ganglia-related movement disorders with 2,3-benzodiazepines” (Motac Neuroscience Limited Williams House, priority 2002, published 2005).

Where a name gives a salt, the structure may show the parent alone.

The conditions of series [1]: cited from earlier work.
The subject of series [2] is MPTP-lesioned marmoset. The series can be described thus: L-DOPA-induced dyskinesia score in the MPTP-lesioned marmoset model of Parkinson's disease. The format is in vivo, Marmosets (Callithrix jacchus). The settings on record: Tofisopam 5-20 mg/kg oral with L-DOPA 15-17.5 mg/kg oral; dyskinesia score 0-4, every 30 minutes for 4 hours; FIGS. 4 and 5. The method, then:
The effect of Tofisopam on L-DOPA-induced dyskinesia was assessed in the MPTP-lesioned marmoset model of Parkinson's disease. 1.1.1 Preparation of MPTP-lesioned marmoset model of Parkinson's disease Marmosets (Callithrix jacchus) (bred in a closed colony at the University of Manchester) were rendered parkinsonian by subcutaneous injection of 2 mg kgl MPTP for 5 consecutive days. The marmosets were allowed to recover for a minimum of 10 weeks until their parkinsonism became stable. The degree of activity and disability before and after MPTP treatment was assessed using a combination of scales as described in section 1.1.2. Animals were then treated with L-DOPA for at least 3 weeks to prime them to elicit dyskinesia. (c) Dyskinesia—non-parametric measures based on the following scale: Dyskinesia score: 0=Absent, 1=Mild, fleeting, 2=Moderate, not interfering with normal activity, 3=Marked, at times interfering with normal activity, 4=Severe, continuous, replacing normal activity. The behavioural tests were assessed every 30 minutes for 4 hours, by post hoc analysis of video-recordings by an observer blinded to the treatment. Marmosets received all treatments as described in Table 1. The treatments were randomised such that on each day all marmosets received one of the treatments. There was at least 48 hours washout between treatments. [table]

The test system of series [3] is MPTP-lesioned marmoset. The series can be described thus: Parkinsonian disability (mobility score) in the MPTP-lesioned marmoset model of Parkinson's disease. The format is in vivo, Marmosets (Callithrix jacchus). The settings on record: Tofisopam 5-20 mg/kg oral with L-DOPA 15-17.5 mg/kg oral; mobility score 0-9, every 30 minutes for 4 hours; FIGS. 4 and 5. The method, then: The effect of Tofisopam on L-DOPA-induced dyskinesia was assessed in the MPTP-lesioned marmoset model of Parkinson's disease. 1.1.1 Preparation of MPTP-lesioned marmoset model of Parkinson's disease Marmosets (Callithrix jacchus) (bred in a closed colony at the University of Manchester) were rendered parkinsonian by subcutaneous injection of 2 mg kgl MPTP for 5 consecutive days. The marmosets were allowed to recover for a minimum of 10 weeks until their parkinsonism became stable. The degree of activity and disability before and after MPTP treatment was assessed using a combination of scales as described in section 1.1.2. Animals were then treated with L-DOPA for at least 3 weeks to prime them to elicit dyskinesia. […] The behavioural tests were assessed every 30 minutes for 4 hours, by post hoc analysis of video-recordings by an observer blinded to the treatment. […]

For the compound `N[C@@H](Cc1ccc(O)c(O)c1)C(=O)O` [levodopa, (−)-3-(3,4-dihydroxy-phenyl)-L-alanine], the solubility in alcohol entry in series [1] (alcohol) is given as “insoluble in alcohol”. In addition, the solubility in water result in series [1] is listed as “slightly soluble in water”. As for `CCC1C(C)=NN=C(c2ccc(OC)c(OC)c2)c2cc(OC)c(OC)cc21` (centres unmarked) [Tofisopam], in series [2], the “severity of L-DOPA-induced dyskinesia” value is “reduces the severity of L-DOPA-induced dyskinesia”. Besides, the “antiparkinsonian action of L-DOPA (parkinsonian disability)” value in series [3] is given as “without affecting the antiparkinsonian action”. Regarding `CCN(CC)CCNC(=O)c1cc(Cl)c(N)cc1OC` [Metoclopramide hydrochloride, 4-amino-5-chloro-N-[2-(diethylamino)ethyl]-2-methoxy benzamide monohydrochloride monohydrate], the solubility in water entry in series [1] is “freely soluble in water”.
